Tests used:
[1] = test system: pAKT(Ser473) in MDA-MB-468 cells; assay: pAKT(Ser473) assay in MDA-MB-468 cells; assay type: cell-based; conditions: Homo sapiens, 0.5 h, compound treatment 30 minutes, MSD ELISA phospho AKT(Ser473), given as ranges, read-out: Cell Activity—pAKT IC50 in MDA-MB-468
Procedure: pAKT(Ser473) Assay in MDA-MB-468 Cells
MDA-MB-468 cells were plated in 384-well flat clear bottom tissue culture plates (Corning #3701) at a density of 5000 cells per 0.057 cm2 in 48 ul of RPMI 1640 media supplemented with 10% fetal bovine serum (FBS). Cells were seeded with a Wellmate liquid handler (Matrix). Columns 1 through 23 were plated with cells and column 24 contained media alone. Cells were incubated at 37° C. with 5% CO2 for approximately 16-20 hours. Duplicate compound plates were prepared in 384-well polypropylene V-Bottom plates (Greiner #781280).
Compound titrations were made across the columns (A1-A20). 20 ul of compound was added to the first column and diluted into a 20 point curve with dimethylsulfoxide (DMSO, Thermo #TS2064) using a 2-fold dilution factor with a liquid handling robot (Hamilton). Columns 22 through 24 contained DMSO alone. Titrations were diluted 682-fold for compound treatment with 4 ul of compound added to 105 ul of RPMI media. Two ul of the diluted compound was added to the cell plates containing 48 ul of media using a multimek robot (Beckman Coulter). Final DMSO concentrations were 0.15%. Cells were treated with compound for 30 minutes at 37° C. with 5% CO2.
Following incubation, media was aspirated from dosed cell plates using an ELx405 plate washer (Bio-Tek) and 25 ul of 4° C. Meso Scale Discovery (MSD) lysis buffer with the addition of protease and phosphatase inhibitors (supplied in MSD kit #N31CB-1) was added to each well using a multidrop combi (Thermo). Precoated 4-spot per well MSD ELISA plates coated with total and phospho AKT(Ser473) antibody and BSA (supplied in kit) were blocked for 1 hour at room temperature with 35 ul per well of 1× MSD wash buffer+3% BSA (supplied in kit).
Blocked plates were washed 4 times with 100 ul per well of 1× Tris wash buffer (supplied in MSD kit) using an Elx405 plate washer (Bio-Tek). To each well, 20 ul of cell lysate was added using a multimek robot (Beckman Coulter) and the plate incubated at 4° C. overnight (˜12-24 hours). Following incubation, the ELISA plates were washed 4 times (100 ul/well) with 1× Tris wash buffer. Twenty microliters per well of 1× detection antibody (supplied in MSD kit) was added using a multidrop combi (Thermo), followed by a 2 hour incubation at room temperature. Detection antibody was aspirated and the plates washed 4 times (100 ul/well) with 1× Tris wash buffer. Read Buffer (supplied in MSD kit) was added at 1× (35 ul/well) at room temperature using a multidrop (Thermo). Relative luminescence units (RLU) were determined using a SECTOR™ Imager 6000 with MSD Workbench Software.
Concentration Response Curves for pAKT(Ser473):
For analysis of the pAKT(Ser473) concentration response curves, the data was normalized using Phospho AKT values divided by the sum of corresponding Total AKT and Phospho AKT values. The normalized values are plotted as the percent of the DMSO-treated control values on the corresponding plate. To determine IC50 values, the data is fit to a 4 parameter nonlinear sigmoidal dose response (variable slope) using GraphPad Prism version 4 for Windows, (GraphPad Software, San Diego Calif. USA). Criteria for curve fitting and IC50 determination include that the IC50 values from duplicate runs must be within 2 to 3-fold of each other, the Y min must be less than or equal to 30% of the DMSO-treated control and the Y max must range between 80-120%. Any data point equal to or greater than 40% of the curve was not utilized.

PI3K-beta = biological target: T1, PI3K-beta (Homo sapiens, UniProt P42338); assay: HTRF in vitro profiling assay for PI3K inhibition (beta isoform); assay type: biochemical; conditions: PI3K-beta enzyme pIC50 range, 200 pM enzyme, 100 uM ATP, 10 uM PIP2, 150 mM NaCl, corrected pIC50, read-out: PI3K-b Enz Activity
T1 construct: made in house
T1 sequence (P42338 whole entry, canonical isoform): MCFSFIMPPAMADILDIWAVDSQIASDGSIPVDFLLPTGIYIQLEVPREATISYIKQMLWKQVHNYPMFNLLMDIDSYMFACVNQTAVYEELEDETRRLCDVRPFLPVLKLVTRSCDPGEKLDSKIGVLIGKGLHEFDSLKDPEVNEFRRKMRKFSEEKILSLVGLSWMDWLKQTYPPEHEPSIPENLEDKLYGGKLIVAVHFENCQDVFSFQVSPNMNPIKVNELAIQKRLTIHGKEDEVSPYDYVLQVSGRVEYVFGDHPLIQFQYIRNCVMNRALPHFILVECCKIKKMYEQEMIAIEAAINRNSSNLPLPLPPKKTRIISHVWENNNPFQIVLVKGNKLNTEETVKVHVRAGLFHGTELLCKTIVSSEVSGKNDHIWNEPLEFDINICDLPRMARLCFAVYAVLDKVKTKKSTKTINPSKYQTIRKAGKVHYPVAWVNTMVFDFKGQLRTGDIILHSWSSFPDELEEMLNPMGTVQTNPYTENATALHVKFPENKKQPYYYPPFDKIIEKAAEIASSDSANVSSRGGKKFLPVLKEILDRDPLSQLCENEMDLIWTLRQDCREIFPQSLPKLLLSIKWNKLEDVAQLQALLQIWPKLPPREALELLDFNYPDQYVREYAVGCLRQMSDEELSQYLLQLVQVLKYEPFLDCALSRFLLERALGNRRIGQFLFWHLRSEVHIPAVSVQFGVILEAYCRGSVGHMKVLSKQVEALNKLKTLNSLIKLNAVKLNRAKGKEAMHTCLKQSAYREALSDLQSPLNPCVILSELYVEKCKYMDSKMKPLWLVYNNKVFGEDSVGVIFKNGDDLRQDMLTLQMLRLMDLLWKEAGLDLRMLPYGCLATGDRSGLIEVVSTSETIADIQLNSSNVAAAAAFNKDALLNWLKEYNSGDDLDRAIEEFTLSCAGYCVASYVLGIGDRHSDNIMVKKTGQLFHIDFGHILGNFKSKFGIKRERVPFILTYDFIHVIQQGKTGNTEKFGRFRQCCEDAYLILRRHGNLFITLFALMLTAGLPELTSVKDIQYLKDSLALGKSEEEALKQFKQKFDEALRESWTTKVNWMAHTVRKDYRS
T1 sequence (P27986 whole entry partner, canonical isoform): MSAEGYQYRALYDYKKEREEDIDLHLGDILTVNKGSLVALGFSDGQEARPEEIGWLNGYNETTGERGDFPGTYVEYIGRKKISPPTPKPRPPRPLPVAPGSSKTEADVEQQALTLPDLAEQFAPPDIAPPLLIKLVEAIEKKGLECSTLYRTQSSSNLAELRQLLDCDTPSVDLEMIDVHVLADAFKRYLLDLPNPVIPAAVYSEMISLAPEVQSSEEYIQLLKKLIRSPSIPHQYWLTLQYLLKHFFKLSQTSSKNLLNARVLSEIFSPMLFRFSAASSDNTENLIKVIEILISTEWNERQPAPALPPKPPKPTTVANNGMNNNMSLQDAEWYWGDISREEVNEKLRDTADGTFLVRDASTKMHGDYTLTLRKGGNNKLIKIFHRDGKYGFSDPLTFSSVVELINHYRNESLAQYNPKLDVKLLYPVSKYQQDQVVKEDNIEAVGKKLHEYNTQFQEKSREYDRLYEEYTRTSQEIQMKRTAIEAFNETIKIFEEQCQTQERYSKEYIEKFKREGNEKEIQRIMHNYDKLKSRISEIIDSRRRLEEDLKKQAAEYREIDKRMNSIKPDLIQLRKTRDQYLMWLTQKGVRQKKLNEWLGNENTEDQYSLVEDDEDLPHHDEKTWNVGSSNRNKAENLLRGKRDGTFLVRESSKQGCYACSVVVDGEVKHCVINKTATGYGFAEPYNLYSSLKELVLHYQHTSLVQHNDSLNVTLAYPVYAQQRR
From the text: HTRF In Vitro Profiling Assays for PI3K Inhibition
The PI3-Kinase profiling assays were developed to measure the compound-dependent inhibition of the alpha, beta, delta, and gamma isoforms of PI3K in an in vitro catalytic assay. This assay was developed and optimized from a kit produced by Upstate (Millipore catalog #33-017). Briefly, this procedure utilizes a pre-formed HTRF (Homogeneous Time-Resolved Fluorescence energy transfer) complex between four binding partners: 1) biotinylated PIP3, 2) GST tagged pleckstrin homology (PH) domain, 3) Europium labeled anti-GST monoclonal antibody, and 4) Streptavidin-Allophycocyanin (APC). The native PIP3 produced by PI 3-Kinase activity displaces biotin-PIP3 from the PH domain, resulting in the dissociation of the HTRF complex and a decrease in the fluorescence signal. The format of this assay is the same for all 4 isoforms of PI3K; the differences lie in the concentration of enzyme used to achieve the most robust signal. The alpha and delta assays are run at 400 pM enzyme; the beta assay is at 200 pM enzyme and the gamma assay is run at 1 nM enzyme. In addition, the alpha, beta and delta assays are run with 150 mM NaCl while the gamma assay is run in the absence of NaCl. The ATP concentration is 100 uM in the alpha, beta, and delta assays and 15 uM ATP in the gamma assay. All reactions are run at 10 uM PIP2
Compounds are serially diluted (3-fold in 100% DMSO) across a 384-well polypropylene mother plate from column 1 to column 12 and column 13 to column 24, to yield 11 concentrations for each test compound. Columns 6 and 18 contain only DMSO. Once titrations are made, […] is transferred to a 384-well low-volume assay plate (Greiner 784076). This assay plate contains three pharmacological controls (known PI3K inhibitors) and 3 assay controls: (1) Enzyme without inhibitor; (2) Buffer minus enzyme, and (3) Buffer minus enzyme plus native PIP3. DMSO is stamped into all wells of columns 6 and 18. PIP3 is added at 40 μM in 1× Reaction buffer (1 μL of 200 μM PIP3) to alternating rows of column 18 (wells 18 B, D, F, H, J, L, N, P). The no-enzyme control reactions are run in wells 18 A, C, E, G, I, K, M, O (0.1 μL of 100% DMSO).
The PI3-Kinase profiling assay was optimized using the HTRF kit provided by Upstate (Millipore). The assay kit contains seven reagents: 1) 4× Reaction Buffer; 2) native PIP2 (substrate); 3) Stop A (EDTA); 4) Stop B (Biotin-PIP3); 5) Detection Mix A (Streptavidin-APC); 6) Detection Mix B (Eu-labeled Anti-GST plus GST-tagged PH-domain); 7) Detection Mix C (KF). In addition, the following items were obtained or purchased: PI3Kinase (prepared by GSK BR&AD), dithiothreitol (Sigma, D-5545), Adenosine-5′-triphosphate (ATP, Teknova cat. # A0220), native PIP3 (1,2-dioctanoyl-sn-glycero-3-[phosphoinositil-3,4,5-triphosphate]tetraammonium salt (Avanti polar lipids, 850186P), DMSO (Sigma, 472301).
PI3Kinase Reaction Buffer is prepared by diluting the stock 1:4 with de-ionized water. Freshly prepared DTT is added at a final concentration of 5 mM on the day of use. Enzyme addition and compound pre-incubation are initiated by the addition of 2.5 μL of PI3K (at twice its final concentration) in 1× reaction buffer to all wells using a Multidrop Combi. Plates are incubated at room temperature for 15 minutes. Reactions are initiated by addition of 2.5 μL of 2× substrate solution (PIP2 and ATP in 1× reaction buffer) using a Multidrop Combi. Plates are incubated at room temperature for one hour. Reactions are quenched by the addition of 2.5 μL of stop solution (Stop A and Stop B pre-mixed at a ratio of 5:1, respectively) to all wells using the Multidrop Combi. […]

Row | Compound | IC50 [1] [nM] | IC50 (PI3K-beta) [nM]
1 | Cc1nn2c(N)cc(N3CCOCC3)nc2c1Cc1cccc(C(F)(F)F)c1C [Example 17, 2-methyl-3-(2-methyl-3-(trifluoromethyl)benzyl)-5-morpholinopyrazolo[1,5-a]pyrimidin-7-amine] | < 1000 | 12.6 to 100
2 | CCc1nn2c(O)cc(C3CCOCC3)nc2c1Cc1cccc(Cl)c1Cl [Example 15, 3-(2,3-dichlorobenzyl)-2-ethyl-5-(tetrahydro-2H-pyran-4-yl)pyrazolo[1,5-a]pyrimidin-7-ol] | > 20000 | 1.26 to 10
3 | Cc1c(Cc2c(N)nn3c(O)cc(N4CCOCC4)nc23)cccc1C(F)(F)F [Example 24, 2-amino-3-(2-methyl-3-(trifluoromethyl)benzyl)-5-morpholinopyrazolo[1,5-a]pyrimidin-7-ol] | < 1000 | 1.26 to 10
4 | Cc1nn2c(O)cc(-c3ccncc3)nc2c1Cc1cccc(Cl)c1Cl [Example 30, 3-(2,3-dichlorobenzyl)-2-methyl-5-(pyridin-4-yl)pyrazolo[1,5-a]pyrimidin-7-ol] | 6000 to 10000 | 0.126 to 1
5 | Cc1c(Cc2cnn3c(O)cc(N4CCOCC4)nc23)cccc1C(F)(F)F [Example 11, 3-(2-methyl-3-(trifluoromethyl)benzyl)-5-morpholinopyrazolo[1,5-a]pyrimidin-7-ol] | 1000 to 5000 | 1.26 to 10
6 | Cc1nn2c(-c3nn[nH]n3)cc(N3CCOCC3)nc2c1Cc1cccc2ccccc12 [Example 47, 4-(2-methyl-3-(naphthalen-1-ylmethyl)-7-(1H-tetrazol-5-yl)pyrazolo[1,5-a]pyrimidin-5-yl)morpholine] | 1000 to 5000 | 12.6 to 100
7 | Cc1nn2c(NC(N)=O)cc(N3CCOCC3)nc2c1Cc1cccc(C(F)(F)F)c1C [Example 16, 1-(2-methyl-3-(2-methyl-3-(trifluoromethyl)benzyl)-5-morpholinopyrazolo[1,5-a]pyrimidin-7-yl)urea] | > 20000 | 12.6 to 100
8 | Oc1cc(-c2ccncc2)nc2c(Cc3cccc(Cl)c3Cl)c(C(F)(F)F)nn12 [Example 32, 3-(2,3-dichlorobenzyl)-5-(pyridin-4-yl)-2-(trifluoromethyl)pyrazolo[1,5-a]pyrimidin-7-ol] | 11000 to 20000 | 1.26 to 10
9 | Cc1c(Cc2c(O)nn3c(O)cc(C4CCOCC4)nc23)cccc1C(F)(F)F [Example 19, 3-(2-methyl-3-(trifluoromethyl)benzyl)-5-(tetrahydro-2H-pyran-4-yl)pyrazolo[1,5-a]pyrimidine-2,7-diol] | > 20000 | 12.6 to 100
10 | Cc1nn2ccc(C3CCOCC3)nc2c1Cc1cccc(C(F)(F)F)c1C [Example 5, 2-methyl-3-(2-methyl-3-(trifluoromethyl)benzyl)-5-(tetrahydro-2H-pyran-4-yl)pyrazolo[1,5-a]pyrimidine] | > 20000 | 126 to 1260
11 | Cn1c(=O)c(Cc2cccc(Cl)c2Cl)c2nc(-c3ccncc3)cc(O)n21 [Example 50, 3-(2,3-dichlorobenzyl)-7-hydroxy-1-methyl-5-(pyridin-4-yl)pyrazolo[1,5-a]pyrimidin-2(1H)-one] | 6000 to 10000 | 12.6 to 100
12 | Cc1nn2c(O)cc(N3CCOC(C)C3)nc2c1Cc1cccc(C(F)(F)F)c1C (stereo not drawn) [Example 2, 2-methyl-3-(2-methyl-3-(trifluoromethyl)benzyl)-5-(2-methylmorpholino)pyrazolo[1,5-a]pyrimidin-7-ol] | 1000 to 5000 | 1.26 to 10
13 | Cc1nn2c(C(=O)O)cc(N3CCOCC3)nc2c1Cc1cccc(C(F)(F)F)c1C [Example 36, 2-methyl-3-(2-methyl-3-(trifluoromethyl)benzyl)-5-morpholinopyrazolo[1,5-a]pyrimidine-7-carboxylic acid] | 1000 to 5000 | 1.26 to 10
14 | Cc1nn2c(C(N)=O)cc(N3CCOCC3)nc2c1Cc1cccc2ccccc12 [Example 38, 2-methyl-5-morpholino-3-(naphthalen-1-ylmethyl)pyrazolo[1,5-a]pyrimidine-7-carboxamide] | < 1000 | 12.6 to 100
15 | Cc1nn2c(-c3ncc[nH]3)cc(N3CCOCC3)nc2c1Cc1cccc2ccccc12 [Example 43, 4-(7-(1H-imidazol-2-yl)-2-methyl-3-(naphthalen-1-ylmethyl)pyrazolo[1,5-a]pyrimidin-5-yl)morpholine] | < 1000 | 1.26 to 10
